Test results published in patent US5489604A, “2-saccharinylmethyl aryl and aryloxy acetates useful as proteolytic enzyme inhibitors and compositions and method of use thereof” (Sterling Winthrop, Inc., priority 1994, dated 1996).

Target: T1, human leukocyte elastase (HLE) (Homo sapiens, UniProt P08246)
T1 sequence (P08246 30-267): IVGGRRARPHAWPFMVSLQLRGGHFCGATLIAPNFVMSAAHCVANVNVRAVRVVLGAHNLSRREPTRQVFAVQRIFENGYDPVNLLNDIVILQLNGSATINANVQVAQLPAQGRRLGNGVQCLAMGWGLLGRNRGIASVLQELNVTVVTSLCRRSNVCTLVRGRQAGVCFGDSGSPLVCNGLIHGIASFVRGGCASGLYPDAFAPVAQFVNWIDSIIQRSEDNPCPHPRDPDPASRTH
Assay: inhibition of human leukocyte elastase (HLE): rate of inactivation kon and inhibition constant Ki* (koff/kon)
Type: biochemical
Conditions: for Ki: not truly reversible, ratio of rate of reactivation to rate of inactivation of the enzyme, read-out: K*i (inhibition constant Ki * = koff /kon); for kon: rate of inactivation kon of enzymatic activity, values are Kon × 10^-3
Description: Thus, instead of measuring a Ki, a Ki * is calculated which is defined as the ratio of the koff /kon, the rate of reactivation of the enzyme to the rate of inactivation of the enzyme. The values of koff and kon are measured and Ki * is then calculated.
The rate of inactivation, kon, of enzymatic activity was determined for the compounds tested by measuring the enzyme activity of an aliquot of the respective enzyme as a function of time after addition of the test compound. […] The rate of inactivation is then equal to [formula] where [I] is the concentration of the inhibiting compound.
The reactivation constant, koff, is similarly determined, and the inhibition constant, Ki *, is then calculated as […]

| SMILES | Ki [nM] | kon [M⁻¹ s⁻¹] |
| --- | --- | --- |
| CC(C)(C(=O)OCN1C(=O)c2ccccc2S1(=O)=O)c1ccccc1 [Example 1A] | 18 | 3500 |
| COc1cc(C(C)C)c2c(c1)S(=O)(=O)N(COC(=O)[C@H](OC)c1ccccc1)C2=O [Example 1I] | 0.08 | 118000 |
| COc1cc(C(C)C)c2c(c1)S(=O)(=O)N(COC(=O)C(C)(O)c1ccccc1)C2=O (stereo not shown) [Example 1J] | 0.12 | 77700 |
| CC(C)(Oc1ccccc1Cl)C(=O)OCN1C(=O)c2ccccc2S1(=O)=O [Example 1C] | 14.4 | 4100 |
| CC(C)c1cccc2c1C(=O)N(COC(=O)C(C)(C)c1ccccc1)S2(=O)=O [Example 1D] | 1 | 23000 |
| COc1cc(C(C)C)c2c(c1)S(=O)(=O)N(COC(=O)[C@@H](OC)c1ccccc1)C2=O [Example 1K] | 0.09 | 102000 |
| CC(C)c1cccc2c1C(=O)N(COC(=O)C(O)c1ccccc1)S2(=O)=O (stereo not shown) [Example 1G] | 0.26 | 88500 |
| CC(C)(Oc1ccc(Cl)cc1)C(=O)OCN1C(=O)c2ccccc2S1(=O)=O [Example 1B] | 14.5 | 4000 |
| CC(C)c1cccc2c1C(=O)N(COC(=O)C(C)(C)Oc1ccccc1Cl)S2(=O)=O [Example 1F] | 0.8 | 29000 |
| COC(C(=O)OCN1C(=O)c2c(C(C)C)cccc2S1(=O)=O)c1ccccc1 (stereo not shown) [Example 1H] | 0.3 | 80000 |
| CC(C)c1cccc2c1C(=O)N(COC(=O)C(C)(C)Oc1ccc(Cl)cc1)S2(=O)=O [Example 1E] | 0.6 | 38000 |
